The assay addresses T1, glucocorticoid receptor (GR) (Homo sapiens, UniProt P04150).
T1 construct: gene NR3C1
T1 sequence (P04150 1-777): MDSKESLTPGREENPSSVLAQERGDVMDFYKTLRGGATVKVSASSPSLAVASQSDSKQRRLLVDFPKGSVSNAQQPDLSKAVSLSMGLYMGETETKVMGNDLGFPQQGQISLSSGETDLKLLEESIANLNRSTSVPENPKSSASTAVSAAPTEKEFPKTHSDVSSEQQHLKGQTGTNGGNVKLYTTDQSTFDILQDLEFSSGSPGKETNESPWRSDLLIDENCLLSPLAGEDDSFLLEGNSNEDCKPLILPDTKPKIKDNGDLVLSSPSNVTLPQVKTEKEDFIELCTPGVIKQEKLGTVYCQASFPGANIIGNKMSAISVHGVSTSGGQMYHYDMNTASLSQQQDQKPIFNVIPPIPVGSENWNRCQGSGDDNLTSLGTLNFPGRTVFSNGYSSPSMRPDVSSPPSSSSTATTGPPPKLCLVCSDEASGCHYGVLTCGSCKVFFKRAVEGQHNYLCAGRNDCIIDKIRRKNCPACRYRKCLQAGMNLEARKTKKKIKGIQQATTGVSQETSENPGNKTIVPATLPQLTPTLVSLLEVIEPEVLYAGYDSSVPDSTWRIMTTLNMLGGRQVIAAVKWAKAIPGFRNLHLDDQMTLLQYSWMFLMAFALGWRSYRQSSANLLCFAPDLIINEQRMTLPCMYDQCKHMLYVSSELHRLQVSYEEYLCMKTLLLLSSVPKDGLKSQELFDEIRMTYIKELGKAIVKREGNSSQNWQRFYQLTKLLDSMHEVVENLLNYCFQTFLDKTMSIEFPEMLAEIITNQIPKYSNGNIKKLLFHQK
In words: PolarScreen GR competitor assay, fluorescence polarization displacement of Fluormone. The assay is classed as binding. A general note: In fluorescence polarisation assays a small probe gives low polarisation when free and higher when bound to something large.

Data on one molecule can be found in PMC6515290, “Gypenoside LXXV Promotes Cutaneous Wound Healing In Vivo by Enhancing Connective Tissue Growth Factor Levels Via the Glucocorticoid Receptor Pathway” (Molecules, 2019).

`CC(C)=CCC[C@](C)(O[C@@H]1O[C@H](CO[C@@H]2O[C@H](CO)[C@@H](O)[C@H](O)[C@H]2O)[C@@H](O)[C@H](O)[C@H]1O)[C@H]1CC[C@]2(C)[C@@H]1[C@H](O)C[C@@H]1[C@@]3(C)CC[C@H](O)C(C)(C)[C@@H]3CC[C@]12C` [G75, Gypenoside LXXV] had a concentration for half-maximal inhibition (IC50) of 0.0528 µM.

One may read the IC50 as the concentration at which inhibition is half-maximal. A low value points to greater potency in that assay.
